Test results from US10131652B2, “Pyrimidinyloxy benzene derivatives as herbicides” (E. I. DU PONT DE NEMOURS AND COMPANY, priority 2014, dated 2018).

Experiments:
Test in all cases: Test D pre-/postemergence plant response
Format in all cases: in vivo
[1] = tested on: blackgrass (Alopecurus myosuroides); details: for Plant response rating (scale 0 to 100), Blackgrass / Blackgrass plant response rating: Postemergence; for Blackgrass plant response rating / Plant response rating, Blackgrass: scale 0 to 100 (0 no effect, 100 complete control); for Plant response rating, Blackgrass: Preemergence
Procedure, shortened: (§1)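 Ratings were visual, 0 = no effect to 100 = complete control, taken against untreated controls after 13 to 15 days in a greenhouse. Chemicals, formulated in non-phytotoxic surfactant-containing solvent, went onto soil (loam/sand) at planting for preemergence, or onto 1- to 4-leaf plants (2–18 cm) for postemergence.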

[2] = tested on: winter wheat (Triticum aestivum); details: for Plant response rating, Wheat: Preemergence
Procedure, shortened: as §1

[3] = tested on: pigweed (Amaranthus retroflexus); details: for Plant response rating, Pigweed: Preemergence
Procedure, shortened: as §1

[4] = tested on: galium (catchweed bedstraw, Galium aparine); details: for Plant response rating, Galium: Preemergence
Procedure, shortened: as §1

[5] = tested on: barnyardgrass (Echinochloa crus-galli); details: for Plant response rating (scale 0 to 100), Barnyardgrass / Barnyardgrass plant response rating: Postemergence; for Barnyardgrass plant response rating / Plant response rating, Barnyardgrass: scale 0 to 100 (0 no effect, 100 complete control); for Plant response rating, Barnyardgrass: Preemergence
Procedure, shortened: as §1

[6] = tested on: velvetleaf (Abutilon theophrasti); details: for Plant response rating, Velvetleaf: Preemergence
Procedure, shortened: as §1

[7] = tested on: giant foxtail (Setaria faberii); details: for Plant response rating (scale 0 to 100), Foxtail, Giant / Foxtail, Giant plant response rating: Postemergence; for Foxtail, Giant plant response rating / Plant response rating, Foxtail, Giant: scale 0 to 100 (0 no effect, 100 complete control); for Plant response rating, Foxtail, Giant: Preemergence
Procedure, shortened: as §1

[8] = tested on: Italian ryegrass (Lolium multiflorum); details: for Plant response rating, Ryegrass, Italian: Preemergence
Procedure, shortened: as §1

[9] = tested on: corn (Zea mays); details: for Plant response rating (scale 0 to 100), Corn / Corn plant response rating: Postemergence; for Corn plant response rating / Plant response rating, Corn: scale 0 to 100 (0 no effect, 100 complete control); for Plant response rating, Corn: Preemergence
Procedure, shortened: as §1

[10] = tested on: johnsongrass (Sorghum halepense); details: for Plant response rating, Johnsongrass: Preemergence
Procedure, shortened: as §1

[11] = tested on: soybean (Glycine max); details: for Plant response rating, Soybean: Preemergence
Procedure, shortened: as §1

[12] = tested on: morningglory (Ipomoea coccinea); details: for Plant response rating, Morningglory: Preemergence
Procedure, shortened: as §1

[13] = tested on: large (Lg) crabgrass (Digitaria sanguinalis); details: for Plant response rating (scale 0 to 100), Crabgrass, Large / Crabgrass, Large plant response rating: Postemergence; for Crabgrass, Large plant response rating / Plant response rating, Crabgrass, Large: scale 0 to 100 (0 no effect, 100 complete control); for Plant response rating, Crabgrass, Large: Preemergence
Procedure, shortened: as §1

[14] = tested on: ragweed (common ragweed, Ambrosia elatior); details: for Plant response rating, Ragweed: Preemergence
Procedure, shortened: as §1

[15] = tested on: lambsquarters (Chenopodium album); details: for Plant response rating, Lambsquarters: Preemergence
Procedure, shortened: as §1

[16] = tested on: oilseed rape (Brassica napus); details: for Plant response rating, Oilseed Rape: Preemergence
Procedure, shortened: as §1

[17] = tested on: yellow nutsedge (Cyperus esculentus); details: for Plant response rating, Nutsedge, Yellow: Preemergence
Procedure, shortened: as §1

[18] = tested on: waterhemp (common waterhemp, Amaranthus rudis); details: for Plant response rating, Waterhemp: Preemergence
Procedure, shortened: as §1

[19] = Postemergence, 31 g ai/ha, scale 0 to 100 (0 no effect, 100 complete control)
[20] = 4 g ai/ha, scale 0 to 100 (0 no effect, 100 complete control)
[21] = 8 g ai/ha, scale 0 to 100 (0 no effect, 100 complete control)
[22] = 16 g ai/ha, scale 0 to 100 (0 no effect, 100 complete control)
[23] = 31 g ai/ha, scale 0 to 100 (0 no effect, 100 complete control)

## N#Cc1cccc(Oc2ncc(Cl)cn2)c1-c1cc(C(F)(F)F)on1 [Compound 157]
[1]; 4 g ai/ha
  Plant response rating (scale 0 to 100), Blackgrass: 0
  Plant response rating, Blackgrass: 0
[1]; 8 g ai/ha
  Plant response rating (scale 0 to 100), Blackgrass: 0
  Plant response rating, Blackgrass: 0
[1]; 16 g ai/ha
  Blackgrass plant response rating: 5
  Plant response rating, Blackgrass: 0
[1]; 31 g ai/ha
  Blackgrass plant response rating: 5
  Plant response rating, Blackgrass: 5
[2]; Postemergence, 4 g ai/ha
  Plant response rating (scale 0 to 100), Wheat: 0
[2]; Postemergence, 8 g ai/ha
  Plant response rating (scale 0 to 100), Wheat: 0
[2]; [19]
  Wheat plant response rating: 0
[2]; [20]
  Plant response rating, Wheat: 0
[2]; [21]
  Plant response rating, Wheat: 0
[2]; [22]
  Plant response rating, Wheat: 0
[2]; [23]
  Plant response rating, Wheat: 5
[3]; Postemergence, 4 g ai/ha
  Plant response rating (scale 0 to 100), Pigweed: 35
[3]; Postemergence, 8 g ai/ha
  Plant response rating (scale 0 to 100), Pigweed: 70
[3]; [19]
  Pigweed plant response rating: 65
[3]; [20]
  Plant response rating, Pigweed: 20
[3]; [21]
  Plant response rating, Pigweed: 100
[3]; [22]
  Plant response rating, Pigweed: 100
[3]; [23]
  Plant response rating, Pigweed: 100
[4]; Postemergence, 4 g ai/ha
  Plant response rating (scale 0 to 100), Galium: 10
[4]; Postemergence, 8 g ai/ha
  Plant response rating (scale 0 to 100), Galium: 50
[4]; [19]
  Galium plant response rating: 70
[4]; [20]
  Plant response rating, Galium: 70
[4]; [21]
  Plant response rating, Galium: 80
[4]; [22]
  Plant response rating, Galium: 80
[4]; [23]
  Plant response rating, Galium: 85
[5]; 4 g ai/ha
  Plant response rating (scale 0 to 100), Barnyardgrass: 0
  Plant response rating, Barnyardgrass: 0
[5]; 8 g ai/ha
  Plant response rating (scale 0 to 100), Barnyardgrass: 0
  Plant response rating, Barnyardgrass: 0
[5]; 16 g ai/ha
  Barnyardgrass plant response rating: 5
  Plant response rating, Barnyardgrass: 0
[5]; 31 g ai/ha
  Barnyardgrass plant response rating: 5
  Plant response rating, Barnyardgrass: 5
[6]; Postemergence, 4 g ai/ha
  Plant response rating (scale 0 to 100), Velvetleaf: 5
[6]; Postemergence, 8 g ai/ha
  Plant response rating (scale 0 to 100), Velvetleaf: 5
[6]; [19]
  Velvetleaf plant response rating: 40
[6]; [20]
  Plant response rating, Velvetleaf: 0
[6]; [21]
  Plant response rating, Velvetleaf: 5
[6]; [22]
  Plant response rating, Velvetleaf: 45
[6]; [23]
  Plant response rating, Velvetleaf: 75
[7]; 4 g ai/ha
  Plant response rating (scale 0 to 100), Foxtail, Giant: 0
  Plant response rating, Foxtail, Giant: 0
[7]; 8 g ai/ha
  Plant response rating (scale 0 to 100), Foxtail, Giant: 20
  Plant response rating, Foxtail, Giant: 0
[7]; 16 g ai/ha
  Foxtail, Giant plant response rating: 40
  Plant response rating, Foxtail, Giant: 0
[7]; 31 g ai/ha
  Foxtail, Giant plant response rating: 20
  Plant response rating, Foxtail, Giant: 20
[8]; Postemergence, 4 g ai/ha
  Plant response rating (scale 0 to 100), Ryegrass, Italian: 0
[8]; Postemergence, 8 g ai/ha
  Plant response rating (scale 0 to 100), Ryegrass, Italian: 0
[8]; [19]
  Ryegrass, Italian plant response rating: 5
[8]; [20]
  Plant response rating, Ryegrass, Italian: 0
[8]; [21]
  Plant response rating, Ryegrass, Italian: 0
[8]; [22]
  Plant response rating, Ryegrass, Italian: 0
[8]; [23]
  Plant response rating, Ryegrass, Italian: 5
[9]; 4 g ai/ha
  Plant response rating (scale 0 to 100), Corn: 0
  Plant response rating, Corn: 0
[9]; 8 g ai/ha
  Plant response rating (scale 0 to 100), Corn: 0
  Plant response rating, Corn: 0
[9]; 16 g ai/ha
  Corn plant response rating: 5
  Plant response rating, Corn: 5
[9]; 31 g ai/ha
  Corn plant response rating: 5
  Plant response rating, Corn: 0
[10]; Postemergence, 4 g ai/ha
  Plant response rating (scale 0 to 100), Johnsongrass: 0
[10]; Postemergence, 8 g ai/ha
  Plant response rating (scale 0 to 100), Johnsongrass: 0
[10]; [19]
  Johnsongrass plant response rating: 0
[10]; [20]
  Plant response rating, Johnsongrass: 0
[10]; [21]
  Plant response rating, Johnsongrass: 0
[10]; [22]
  Plant response rating, Johnsongrass: 0
[10]; [23]
  Plant response rating, Johnsongrass: 5
[11]; Postemergence, 4 g ai/ha
  Plant response rating (scale 0 to 100), Soybean: 5
[11]; Postemergence, 8 g ai/ha
  Plant response rating (scale 0 to 100), Soybean: 10
[11]; [19]
  Soybean plant response rating: 35
[11]; [20]
  Plant response rating, Soybean: 0
[11]; [21]
  Plant response rating, Soybean: 0
[11]; [22]
  Plant response rating, Soybean: 0
[11]; [23]
  Plant response rating, Soybean: 50
[12]; Postemergence, 4 g ai/ha
  Plant response rating (scale 0 to 100), Morningglory: 0
[12]; Postemergence, 8 g ai/ha
  Plant response rating (scale 0 to 100), Morningglory: 5
[12]; [19]
  Morningglory plant response rating: 35
[12]; [20]
  Plant response rating, Morningglory: 0
[12]; [21]
  Plant response rating, Morningglory: 0
[12]; [22]
  Plant response rating, Morningglory: 0
[12]; [23]
  Plant response rating, Morningglory: 10
[13]; 4 g ai/ha
  Plant response rating (scale 0 to 100), Crabgrass, Large: 0
  Plant response rating, Crabgrass, Large: 0
[13]; 8 g ai/ha
  Plant response rating (scale 0 to 100), Crabgrass, Large: 5
  Plant response rating, Crabgrass, Large: 0
[13]; 16 g ai/ha
  Crabgrass, Large plant response rating: 5
  Plant response rating, Crabgrass, Large: 5
[13]; 31 g ai/ha
  Crabgrass, Large plant response rating: 5
  Plant response rating, Crabgrass, Large: 40
[14]; Postemergence, 4 g ai/ha
  Plant response rating (scale 0 to 100), Ragweed: 50
[14]; Postemergence, 8 g ai/ha
  Plant response rating (scale 0 to 100), Ragweed: 15
[14]; [19]
  Ragweed plant response rating: 25
[14]; [20]
  Plant response rating, Ragweed: 0
[14]; [21]
  Plant response rating, Ragweed: 0
[14]; [22]
  Plant response rating, Ragweed: 0
[14]; [23]
  Plant response rating, Ragweed: 0
[15]; Postemergence, 4 g ai/ha
  Plant response rating (scale 0 to 100), Lambsquarters: 20
[15]; Postemergence, 8 g ai/ha
  Plant response rating (scale 0 to 100), Lambsquarters: 25
[15]; [19]
  Lambsquarters plant response rating: 55
[15]; [20]
  Plant response rating, Lambsquarters: 0
[15]; [21]
  Plant response rating, Lambsquarters: 25
[15]; [22]
  Plant response rating, Lambsquarters: 100
[15]; [23]
  Plant response rating, Lambsquarters: 100
[16]; Postemergence, 4 g ai/ha
  Plant response rating (scale 0 to 100), Oilseed Rape: 0
[16]; Postemergence, 8 g ai/ha
  Plant response rating (scale 0 to 100), Oilseed Rape: 5
[16]; [19]
  Oilseed Rape plant response rating: 25
[16]; [20]
  Plant response rating, Oilseed Rape: 0
[16]; [21]
  Plant response rating, Oilseed Rape: 0
[16]; [22]
  Plant response rating, Oilseed Rape: 40
[16]; [23]
  Plant response rating, Oilseed Rape: 100
[17]; Postemergence, 4 g ai/ha
  Plant response rating (scale 0 to 100), Nutsedge, Yellow: 0
[17]; Postemergence, 8 g ai/ha
  Plant response rating (scale 0 to 100), Nutsedge, Yellow: 5
[17]; [19]
  Nutsedge, Yellow plant response rating: 10
[17]; [20]
  Plant response rating, Nutsedge, Yellow: 0
[17]; [21]
  Plant response rating, Nutsedge, Yellow: 0
[17]; [22]
  Plant response rating, Nutsedge, Yellow: 0
[17]; [23]
  Plant response rating, Nutsedge, Yellow: 0
[18]; Postemergence, 4 g ai/ha
  Plant response rating (scale 0 to 100), Waterhemp: 20
[18]; Postemergence, 8 g ai/ha
  Plant response rating (scale 0 to 100), Waterhemp: 55
[18]; [19]
  Waterhemp plant response rating: 75
[18]; [20]
  Plant response rating, Waterhemp: 0
[18]; [21]
  Plant response rating, Waterhemp: 70
[18]; [22]
  Plant response rating, Waterhemp: 100
[18]; [23]
  Plant response rating, Waterhemp: 100
